Measurements published in patent US12365655B2, “Compounds” (CTXT PTY LTD, priority 2018, dated 2025).

What was measured:
TIP60-KAT5 = TIP60-KAT5 (Homo sapiens, UniProt Q92993); assay: Acetyltransferase biochemical assay (AlphaScreen), KAT5
MOZ-KAT6A = MOZ-KAT6A (Homo sapiens, UniProt Q92794, A567V); assay: Acetyltransferase biochemical assay (AlphaScreen), KAT6A
HBO-KAT7 = HBO-KAT7 (Homo sapiens, UniProt O95251); assay: Acetyltransferase biochemical assay (AlphaScreen), KAT7
Sequence of HBO-KAT7 (O95251 with tags, fused parts or gaps): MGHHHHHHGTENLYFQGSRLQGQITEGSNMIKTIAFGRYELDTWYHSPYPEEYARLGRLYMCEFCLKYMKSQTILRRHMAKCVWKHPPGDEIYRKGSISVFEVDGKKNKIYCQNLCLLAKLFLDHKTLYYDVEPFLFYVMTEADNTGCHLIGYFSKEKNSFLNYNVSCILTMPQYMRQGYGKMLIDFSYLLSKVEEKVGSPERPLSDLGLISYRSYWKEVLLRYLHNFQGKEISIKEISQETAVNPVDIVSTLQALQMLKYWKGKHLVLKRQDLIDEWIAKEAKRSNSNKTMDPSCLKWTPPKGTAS

Sequence of TIP60-KAT5 (Q92993 with tags, fused parts or gaps isoform Q92993-2): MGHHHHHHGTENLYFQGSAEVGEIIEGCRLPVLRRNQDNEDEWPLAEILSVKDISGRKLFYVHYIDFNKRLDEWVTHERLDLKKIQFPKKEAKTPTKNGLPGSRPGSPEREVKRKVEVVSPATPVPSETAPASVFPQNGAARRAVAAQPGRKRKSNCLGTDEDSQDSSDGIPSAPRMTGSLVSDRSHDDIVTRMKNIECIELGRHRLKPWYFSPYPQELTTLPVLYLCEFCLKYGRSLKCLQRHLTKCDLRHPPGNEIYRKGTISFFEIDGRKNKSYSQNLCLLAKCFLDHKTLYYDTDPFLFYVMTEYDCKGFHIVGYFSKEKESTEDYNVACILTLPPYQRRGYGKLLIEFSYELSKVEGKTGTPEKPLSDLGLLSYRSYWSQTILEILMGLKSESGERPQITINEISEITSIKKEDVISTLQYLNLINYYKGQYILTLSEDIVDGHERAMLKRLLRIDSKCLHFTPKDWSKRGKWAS
Sequence of MOZ-KAT6A (Q92794 with tags, fused parts or gaps A567V): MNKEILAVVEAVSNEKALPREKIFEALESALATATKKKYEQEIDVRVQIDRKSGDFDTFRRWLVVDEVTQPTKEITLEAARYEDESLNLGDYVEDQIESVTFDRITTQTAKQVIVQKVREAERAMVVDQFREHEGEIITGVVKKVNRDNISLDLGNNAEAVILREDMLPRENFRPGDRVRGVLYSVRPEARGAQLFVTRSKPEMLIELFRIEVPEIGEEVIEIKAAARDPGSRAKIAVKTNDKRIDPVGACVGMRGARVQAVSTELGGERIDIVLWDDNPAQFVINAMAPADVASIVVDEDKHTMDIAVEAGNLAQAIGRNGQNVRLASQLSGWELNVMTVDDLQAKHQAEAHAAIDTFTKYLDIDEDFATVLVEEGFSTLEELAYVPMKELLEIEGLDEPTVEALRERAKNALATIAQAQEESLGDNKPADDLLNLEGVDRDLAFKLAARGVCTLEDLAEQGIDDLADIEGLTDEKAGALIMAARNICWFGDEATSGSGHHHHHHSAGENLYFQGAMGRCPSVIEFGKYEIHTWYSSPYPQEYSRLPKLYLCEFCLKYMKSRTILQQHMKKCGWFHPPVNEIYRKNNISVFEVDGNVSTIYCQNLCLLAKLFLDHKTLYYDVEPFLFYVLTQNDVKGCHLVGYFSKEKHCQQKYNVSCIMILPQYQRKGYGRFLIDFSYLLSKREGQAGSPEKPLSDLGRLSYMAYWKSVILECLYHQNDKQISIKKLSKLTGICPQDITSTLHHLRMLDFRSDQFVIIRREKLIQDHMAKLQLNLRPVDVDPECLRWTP

SMILES	IC50 (TIP60-KAT5)	IC50 (MOZ-KAT6A)	IC50 (HBO-KAT7)
O=S(=O)(Nc1noc2ccccc12)c1ccc(-c2ccccc2)cc1 [Example 69, N-(benzo[d]isoxazol-3-yl)-[1,1-biphenyl]-4-sulfonamide]	124 µM	42.9 µM	94.1 µM
O=S(=O)(Nc1noc2cccc(Cl)c12)c1c(F)cccc1F [Example 29, N-(4-chlorobenzo [d]isoxazol-3-yl)-2,6-difluorobenzene sulfonamide]	> 125 µM	> 125 µM	94.1 µM
CCc1ccc(OC)c(S(=O)(=O)Nc2noc3ccc(CO)cc23)c1 [Example 229]	> 125 µM	85 µM	115 µM
O=S(=O)(Nc1noc2cccc(Cl)c12)c1ccc(-n2cccn2)cc1 [Example 28, N-(4-chlorobenzo [d]isoxazol-3-yl)-4-(1H-pyrazol-1-yl)benzenesulfonamide]	> 125 µM	117 µM	54.8 µM
COCc1ccccc1S(=O)(=O)Nc1noc2cccc(Cl)c12 [Example 1, N-(4-chlorobenzo [d]isoxazol-3-yl)-2-(methoxymethyl) benzenesulfonamide]	> 125 µM	91.4 µM	53.9 µM
COc1ccccc1S(=O)(=O)Nc1noc2ccccc12 [Example 58, N-(benzo[d]isoxazol-3-yl)-2-methoxybenzene sulfonamide]	> 125 µM	28.4 µM	16.6 µM
COC(=O)c1ccccc1S(=O)(=O)Nc1noc2cccc(Cl)c12 [Example 12, methyl 2-(N-(4-chlorobenzo[d]isoxazol-3-yl)sulfamoyl)benzoate]	> 125 µM	> 125 µM	49.9 µM
O=S(=O)(Nc1noc2cccc(Cl)c12)c1ccc2c(c1)OCCCO2 [Example 14, N-(4-chlorobenzo [d]isoxazol-3-yl)-3,4-dihydro-2H-benzo[b][1,4]dioxepine-7-sulfonamide]	> 125 µM	45 µM	15.2 µM
COc1ccc(C)cc1S(=O)(=O)Nc1noc2ccccc12 [Example 47, N-(benzo[d]isoxazol-3-yl)-2-methoxy-5-methyl benzene sulfonamide]	123 µM	12.9 µM	29.4 µM
CCc1ccc(OC)c(S(=O)(=O)Nc2noc3c(C(=O)N(C)C)cccc23)c1 [Example 185, 3-(5-Ethyl-2-methoxyphenylsulfonamido)-N,N-dimethylbenzo[d]isoxazole-7-carboxamide]	> 125 µM	105 µM	60.7 µM
CCc1ccc(OC)c(S(=O)(=O)Nc2noc3c(-c4ncccn4)cccc23)c1 [Example 136, 5-Ethyl-2-methoxy-N-(7-(pyrimidin-2-yl)benzo[d]isoxazol-3-yl)benzenesulfonamide]	> 125 µM	34.3 µM	28.3 µM
O=S(=O)(Nc1noc2ccccc12)c1ccc2c(c1)CCCC2 [Example 65, N-(benzo[d]isoxazol-3-yl)-5,6,7,8-tetrahydro-naphthalene-2-sulfonamide]	> 125 µM	27.9 µM	59.7 µM
CCc1ccc(OC)c(S(=O)(=O)Nc2noc3ccc(C(=O)NC)cc23)c1 [Example 230, 3-((5-Ethyl-2-methoxyphenyl)sulfonamido)-N-methylbenzo[d]isoxazole-5-carboxamide]	> 125 µM	48.1 µM	109 µM
COc1ccc(F)cc1S(=O)(=O)Nc1noc2cccc(Cl)c12 [Example 5, N-(4-chlorobenzo [d]isoxazol-3-yl)-5-fluoro-2-methoxybenzene sulfonamide]	114 µM	31.3 µM	6.01 µM
COc1ccc(-n2cccn2)cc1S(=O)(=O)Nc1noc2ccccc12 [Example 54, N-(benzo[d]isoxazol-3-yl)-2-methoxy-5-(1H-pyrazol-1-yl)benzene sulfonamide]	> 125 µM	63 µM	> 125 µM
O=S(=O)(Nc1noc2cccc(Cl)c12)c1ccc(F)c(F)c1F [Example 117, N-(4-Chlorobenzo[d]isoxazol-3-yl)-2,3,4-trifluorobenzenesulfonamide]	> 125 µM	85.4 µM	> 125 µM
COc1ccccc1S(=O)(=O)Nc1noc2cccc(F)c12 [Example 156]	> 125 µM	1.54 µM	1.97 µM
COc1cccc(O)c1S(=O)(=O)Nc1noc2cccc(OC)c12 [Example 213, 2-Hydroxy-6-methoxy-N-(4-methoxybenzo[d]isoxazol-3-yl)benzenesulfonamide]	> 125 µM	8.28 µM	20.5 µM

Now those with a lower IC50 (TIP60-KAT5), led by results:

IC50 (TIP60-KAT5)	IC50 (MOZ-KAT6A)	IC50 (HBO-KAT7)	SMILES
6.3 µM	0.25 µM	0.618 µM	CCc1ccc(OC)c(S(=O)(=O)Nc2noc3ccc(Br)c(Cl)c23)c1 [Example 128, N-(5-bromo-4-chlorobenzo[d]isoxazol-3-yl)-5-ethyl-2-methoxy benzenesulfonamide]
34.3 µM	2.08 µM	6.83 µM	COc1ccc(Br)cc1S(=O)(=O)Nc1noc2cccc(Cl)c12 [Example 45]
38.9 µM	5.21 µM	6.3 µM	CC(C)c1ccc(S(=O)(=O)Nc2noc3cccc(Cl)c23)cc1 [Example 22, N-(4-chlorobenzo [d]isoxazol-3-yl)-4-isopropylbenzene sulfonamide]
73.7 µM	2.82 µM	6.95 µM	CCc1ccc(OC)c(S(=O)(=O)Nc2noc3cccc(C)c23)c1 [Example 198, 5-Ethyl-2-methoxy-N-(4-methylbenzo[d]isoxazol-3-yl)benzenesulfonamide]
32 µM	4.35 µM	8.02 µM	CCc1ccc(OC)c(S(=O)(=O)Nc2noc3c(C4CC4)cccc23)c1 [Example 189]
9.04 µM	0.395 µM	0.82 µM	CCc1ccc(OC)c(S(=O)(=O)Nc2noc3ccc(CC)cc23)c1 [Example 235]
18.1 µM	0.654 µM	0.72 µM	COc1cccc(OC)c1S(=O)(=O)Nc1noc2cc(-c3cccc(C#N)c3)cc(OC)c12 [Example 243]
26.3 µM	0.157 µM	2.51 µM	COc1cccc(OC)c1S(=O)(=O)Nc1noc2cc(-c3ccccn3)c(C)cc12 [Example 241, 2,6-Dimethoxy-N-(5-methyl-6-(pyridin-2-yl)benzo[d]isoxazol-3-yl)benzenesulfonamide]
93.7 µM	17.5 µM	54.1 µM	O=S(=O)(Nc1noc2cccc(Cl)c12)c1cc(OCC(F)(F)F)ccc1OCC(F)(F)F [Example 10, N-(4-chlorobenzo [d]isoxazol-3-yl)-2,5-bis(2,2,2-trifluoroethoxy) benzenesulfonamide]
46.2 µM	1.05 µM	1.58 µM	COCc1cc(OC)c2c(NS(=O)(=O)c3c(OC)cccc3OC)noc2c1I [Example 160]
32.1 µM	2.86 µM	13.5 µM	CCc1ccc(OC)c(S(=O)(=O)Nc2noc3cc(-c4ccccc4)ccc23)c1 [Example 179, 5-Ethyl-2-methoxy-N-(6-phenylbenzo[d]isoxazol-3-yl)benzenesulfonamide]
4.05 µM	0.437 µM	0.507 µM	CCc1ccc(OC)c(S(=O)(=O)Nc2noc3ccc(C)c(Cl)c23)c1 [Example 153]
31.3 µM	5.6 µM	3.41 µM	COc1ccc2cccnc2c1S(=O)(=O)Nc1noc2cccc(OC)c12 [Example 98, 7-Methoxy-N-(4-methoxybenzo[d]isoxazol-3-yl)quinoline-8-sulfonamide]
80.3 µM	10.8 µM	38 µM	CCc1ccc(OC)c(S(=O)(=O)Nc2noc3ccc(CN)cc23)c1 [Example 226]
28.7 µM	2.03 µM	1.05 µM	COc1cc(CO)cc(OC)c1S(=O)(=O)Nc1noc2cccc(OC)c12 [Example 209, 4-(Hydroxymethyl)-2,6-dimethoxy-N-(4-methoxybenzo[d]isoxazol-3-yl)benzenesulfonamide]
26.8 µM	0.655 µM	1.42 µM	COc1cccc(OCc2ccccc2)c1S(=O)(=O)Nc1noc2cccc(OC)c12 [Example 222, 2-(Benzyloxy)-6-methoxy-N-(4-methoxybenzo[d]isoxazol-3-yl)benzenesulfonamide]
17.9 µM	13.6 µM	3.79 µM	COc1cccc2onc(NS(=O)(=O)c3cccc4cccnc34)c12 [Example 83, N-(4-methoxybenzo[d]isoxazol-3-yl)quinoline-8-sulfonamide]
29.9 µM	9.39 µM	24.2 µM	CCc1ccc(OC)c(S(=O)(=O)Nc2noc3c(-c4cncnc4)cccc23)c1 [Example 192, 5-Ethyl-2-methoxy-N-(7-(pyrimidin-5-yl)benzo[d]isoxazol-3-yl)benzenesulfonamide]
33.2 µM	5.6 µM	4.48 µM	COc1cc(-c2ccccc2)ccc1S(=O)(=O)Nc1noc2ccccc12 [Example 183, N-(Benzo[d]isoxazol-3-yl)-3-methoxy-[1,1-biphenyl]-4-sulfonamide]
51.3 µM	10.5 µM	28.9 µM	CCc1ccc(OC)c(S(=O)(=O)Nc2noc3cc(-c4ncccn4)ccc23)c1 [Example 126, 5-Ethyl-2-methoxy-N-(6-(pyrimidin-2-yl)benzo[d]isoxazol-3-yl)benzenesulfonamide]
7.29 µM	1.91 µM	1.46 µM	O=S(=O)(Nc1noc2cccc(Cl)c12)c1cccc2scnc12 [Example 15, N-(4-chlorobenzo [d]isoxazol-3-yl)benzo [d]thiazole-4-sulfonamide]
84.7 µM	25.2 µM	47.1 µM	CCc1ccc(OC)c(S(=O)(=O)Nc2noc3c(CO)cccc23)c1 [Example 186]
